Data from patent US20100068299A1 (priority 2003, published 2010).

Assay: Reversal of formed copper phosphite precipitate by added agent (Example 1)
Format: physicochemical
Conditions: agent added at final concentration of 10 mM; 0.6 g/l Cu(OH)2, 14.4 g/l KH2PO3, 1 g/l K2CO3, pH 5.5

Q: Which “effect on formed copper phosphite precipitate” value does the source give for `O=C([O-])CN(CCN(CC(=O)[O-])CC(=O)O)CC(=O)O.[Na+].[Na+]` [disodium EDTA] here?
A: immediately disappeared
